Earlier results, collected in patent US20170056386A1, “TOPICAL ANTIFUNGAL COMPOSITION FOR TREATING ONYCHOMYCOSIS” (Polichem SA, priority 2014, published 2017).

Tested on: onychomycosis
Conditions: oral administration

CN(C/C=C/C#CC(C)(C)C)Cc1cccc2ccccc12 [terbinafine]
Complete cure (patients): 38%
